The values below come from patent publication US20140011781A1, “METHOD FOR TREATING OR […] USING TESTIS EXTRACT AS ACTIVE INGREDIENT” (Industry-Academic Cooperation Foundation, Yeungnam …, priority 2009, published 2014).

Assay type in all cases: in vivo, CD-1 mouse
In series [1] the test system is CD34 hematopoietic stem cells in bone marrow. Kind of series: Numerical change of CD34-marked hematopoietic stem cell using FACS. The settings on record: 0.1% extract or nandrolone injected to mice, femur bone marrow. On the procedure:
(§1) Next, the pig testis extracts M1 and M2 were dissolved with first solvent of 100% ethanol, and then sesame oil was added to prepare at a concentration of 1 g/ml. 100% was defined as 100-fold diluted one with the sesame oil, and then the sample was used by diluting to be a concentration of 0.1%, 1%, 10% or 50%. Each concentration (0.1%, 1%, 10%, 50% or 100%) of the pig testis extract was subcutaneously injected to CD-1 mouse of 6 to 8-week raised under physiological condition for 21 days (6 mice per each group).
In the Experimental Example, CD34, which is a marker for hematopoietic stem cell, was used in order to confirm whether a pig testis extract stimulates proliferation of hematopoietic stem cells, or not. Each of 0.1% pig testis extracts M1 and M2 was injected to the mice as the above Experimental Example; then the mice were scarified; their femurs were collected; and then bone marrows were extracted by using PBS solution.
Since then, after reacting with CD34 specific antibody, CD34 hematopoietic stem cells were counted for the analysis by using a fluorescent activated cell sorter.

Series [2] concerns reproductive period. Nature of the series: Analysis of reproductive period change by vaginal smearing. As to conditions: during 21 days of subcutaneous injection, female CD-1 mice; nandrolone 3 mg/kg BW; compared with sesame oil control. On the procedure: as §1
As mentioned above, each concentration of the pig testis extract was subcutaneously injected to 6-health CD-1 female mice raised under physiological condition for 21 days. Vaginal smearing was performed to analyze reproductive period change during an injection. As a control group, the mice injected with only sesame oil and the mice injected with only 19-nortestosterone (3 mg/kg BW) were used to analyze the effects. At 21 days after treating, the mice were anesthetized with sodium pentobarbital and then their peripheral bloods were collected. And immediately, the mice were sacrificed by a luxation of the cervical vertebral, and a femur for obtaining bone marrow and liver tissue, ovary, and uterus for analyzing cytotoxicity were removed. Some of them were fixed for a histological analysis and some of them were stored at a deep-freezer of −80° C. […]

Series [3] has as its system red blood cell in peripheral blood. Nature of the series: Numerical change of RBC in peripheral blood. The settings on record: 0.1% extract or nandrolone injected to mice. As to the method: as §1
Peripheral bloods were obtained after treating each of 0.1% pig testis extracts M1 and M2 under the same condition as the above Experimental Example. Since then, the number of RBC (Red Blood Cell) was counted by using an analyzer.

Structures are written as SMILES.

Consider `C[C@]12CC[C@H]3[C@@H](CCC4=CC(=O)CC[C@@H]43)[C@@H]1CC[C@@H]2O` [nandrolone], for which the “number of CD34 hematopoietic stem cell in bone marrow” value in series [1] is recorded as “significantly increased”. In series [2], the “progress of reproductive period (vaginal smearing)” value was “gradually irregular”. For the same compound, the “number of RBC in peripheral blood compared with control group” value in series [3] was “significantly increased”.
